Test results published in patent publication US20250177357A1, “METHODS FOR TREATING HYPERTROPHIC CARDIOMYOPATHY” (priority 2021, published 2025).

Key:
Format in all cases: in vivo, human
[1] = Phase 1 plasma pharmacokinetics, multiple-ascending dose cohorts; settings: for CLss/F, mean ± SD: n = 6
Description: Multiple-ascending dose (MAD) cohorts. The MAD cohorts also used a randomized, double-blind, placebo-controlled, sequential design.
(§1) Pharmacokinetic analyses. For all study groups, blood samples for PK assessment were obtained pre-dose, up to 12 times daily on day 1, and then at regular intervals throughout the study. Blood samples were collected according to the following schedule: SAD Cohorts: Day 1: pre-dose and 0.25, 0.5, 1, 1.5, 2, 2.5, 3, 4, 6, 8, 12, 16, 24, 36, 48, 72, 96, and 216 h post dose. MAD Cohorts (14-day Dosing): Day 1: pre-dose and 0.25, 0.5, 1, 1.5, 2, 2.5, 3, 4, 6, 8, and 12 h post dose; Days 2, 4, 5, 6, and 9: pre-dose (corresponding to trough samples following dosing on days 1, 3, 4, 5, and 8) and 1.5 h post dose; Days 3, 7, 8, 10, 11, 12, and 13: pre-dose (corresponding to trough samples following dosing on days 2, 6, 7, 9, 10, 11, and 12); Day 14: pre-dose and 0.25, 0.5, 1.5, 2, 2.5, 3, 4, 6, 8, 12, 16, 24, 36, 48, 72, and 168 h post dose. MAD Cohort (17-Day Dosing): Day 1: pre-dose and 0.25, 0.5, 1, 1.5, 2, 2.5, 3, 4, 6, 8, and 12 h post dose; Days 2, 4, 5, 6, and 9: pre-dose (corresponding to trough samples following dosing on days 1, 3, 4, 5, and 8) and 1.5 h post dose; Days 3, 7, 8, 10, 11, 12, 13, 14, 15, and 16: pre-dose (corresponding to trough samples following dosing on days 2, 6, 7, 9, 10, 11, and 12); Day 17: pre-dose and 0.25, 0.5, 1.5, 2, 2.5, 3, 5, 7, 9, 12, 24, 36, 48, 72, and 168 h post dose. CYPD6-PM Cohort: Day 1: pre-dose and 0.25, 0.5, 1, 1.5, 2, 2.5, 3, 4, 6, 8, 12, 16, 24, 36, 48, 72, 96, 216, 312, and 552 h post dose. Food-Effect Cohort: Day 1: pre-dose and 0.25, 0.5, 1, 1.5, 2, 2.5, 3, 4, 6, 8, 12, 16, 24, 36, 48, 72, 96, 144, and 216 h post dose. Standard non-compartmental methods were used to calculate PK parameters using Phoenix® WinNonlin® Version 7.0; actual sample collection times were utilized.
(§2) For the MAD cohort, the parameters were AUC24 and Cmax on day 1, plus AUC to the […] (AUCtau) and Cmax on day 14 or 17. The statistical linear relationship between the ln-transformed PK parameters and the ln-transformed dose was verified by including the quadratic (ln Dose)^2 and cubic (ln Dose)^3 effects. […] The dose-proportionality analysis was performed using SAS® PROC MIXED.
An analysis of variance (ANOVA) model was conducted separately for each dose level; day was included as the fixed effect. Helmert contrasts were developed such that each time-point was compared with the mean of the subsequent time-points.

[2] = system: patients with symptomatic oHCM; assay: Open-label extension trial in oHCM: safety
Text: (§3) An open-label extension clinical trial of CK-274 in patients with symptomatic oHCM was initiated.
(§4) Patients who completed the study as described in Example 2 and had not developed atrial fibrillation were eligible to enroll in the study. Echo-guided dose titration based on site reads was managed by the investigator and could occur at any time during the trial, as described below.
(§5) Each patient received Dose 1 of CK-274 once daily for 2 weeks. […] Patients were up-titrated to Dose 2 if either of the following conditions were met on echocardiography: (1) resting LVOT-G≥30 mmHg and the biplane LVEF≥50%; or (2) resting LVOT-G<30 mmHg, post-Valsalva LVOT-G≥50 mmHg, and the biplane LVEF≥50%. Otherwise, the patient remained on 5 mg of CK-274. If LVEF was […], treatment was discontinued. If LVEF was <40%, treatment is interrupted.
(§6) Ambulatory cardiac monitoring is performed on weeks 48, 96, 144, 192 and 240. Cardiac magnetic resonance is monitored at weeks 48, 144 and 240. (See FIG. 26).

[3] = Phase 1 plasma pharmacokinetics, single-ascending dose cohorts
Description: Single-ascending dose (SAD) cohorts. The SAD portion of the study used a randomized, double-blind, placebo-controlled, sequential, escalating-dose design, in which participants received single-ascending oral doses of the study drug. Seven cohorts were dosed in sequence (FIG. 2).
as §1, §2

[4] = system: patients with symptomatic oHCM; assay: Open-label extension trial in oHCM: LVOT-G, LVEF, NYHA class, KCCQ
Text: as §3, §4, §5, §6
Change in KCCQ scores from baseline, including OSS=overall summary score, CSS=clinical summary score, TSS=total symptom score, PLS=physical limitation score, SLS=social limitation score, QoL=quality of life, were determined. Patients were categorized with worsened (≤−5 points), unchanged (−5 to <5 points), small improvement (5 to <10 points), moderate to large improvement (10 to <20 points), and large to very large improvement (≥20 points) relative to baseline.

Compound: CCc1nc(-c2ccc3c(c2)CC[C@H]3NC(=O)c2cnn(C)c2)no1 [aficamten, (R)—N-(5-(5-ethyl-1,2,4-oxadiazol-3-yl)-2,3-dihydro-1H-inden-1-yl)-1-methyl-1H-pyrazole-4-carboxamide]
- Steady state achieved by the end of day ([1]; 5-mg and 7.5-mg doses once daily): 12 days
- Steady state achieved by the end of day ([1]; 10-mg dose once daily): 10 days
- CLss/F, mean ± SD ([1]; Day 14, 5 mg qd × 14 Days): 3.9 ± 0.9 L/h
- CLss/F, mean ± SD ([1]; Day 14, 10 mg qd × 14 Days): 3.9 ± 0.8 L/h
- CLss/F, mean ± SD ([1]; Day 17, 7.5 mg qd × 17 Days): 3.1 ± 0.7 L/h
- Time within which steady state is achieved ([1]; once-daily dosing): ≤ 2 weeks
- Patients with TEAE Leading to Dose Reduction ([2]; N = 38): 2 (5%)
- Patients with TEAE Leading to Drug Interruption ([2]; N = 38): 1 (3%)
- Patients with at Least One Related TEAE ([2]; N = 38): 8 (21%)
- Patients with at Least One Severe TEAE ([2]; N = 38): 1 (3%)
- Patients with at Least One TEAE ([2]; N = 38): 28 (74%)
- Patients with at Least One TESAE ([2]; N = 38): 2 (5%)
- LVEF of one patient with recurrent alcohol induced atrial fibrillation ([2]; on 15 mg of CK-274): 47%
- Events of LVEF <50% attributed to CK-274 ([2]; open-label extension): no events
- Maximum time to maximum observed concentration across all participants ([3]; SAD cohorts): 4.0 h
- CL/F, mean ± SD ([3]; single oral dose 3 mg, n = 5): 4.2 ± 3.1 L/h
- CL/F, mean ± SD ([3]; single oral dose 10 mg, n = 4): 3.0 ± 0.7 L/h
- CL/F, mean ± SD ([3]; single oral dose 25 mg, n = 6): 3.6 ± 0.5 L/h
- CL/F, mean ± SD ([3]; single oral dose 40 mg, n = 5): 3.4 ± 0.6 L/h
- CL/F, mean ± SD ([3]; single oral dose 50 mg, n = 9): 3.8 ± 1.1 L/h
- Participants with very large clinical improvements (≥20 points) in KCCQ ([4]; Week 24): 40.0%
- LVOT gradients (resting and Valsalva) over time ([4]; Weeks 2-24, site reads): significant and sustained reduction
- Patients with worsening in NYHA class from baseline ([4]; open-label extension): No patients
- LVEF over time ([4]; through Week 24): minimal and stable reductions
